Assay results from ChEMBL document CHEMBL5260835, “Therapeutic potential of quercetin as a cardiovascular agent” (2018).

What was measured:
Mus musculus [1] = organism: Mus musculus; assay: Antiatherosclerotic activity in Apoe-/- mouse assessed as attenuation of coronary artery illness relative to control; assay type: functional
Oryctolagus cuniculus [2] = organism: Oryctolagus cuniculus; assay: Cardioprotective activity in rabbit model assessed as resistance relaxation at 8 uM; assay type: functional; set-up: scale not given: the % may be the effect or the level left
Oryctolagus cuniculus [3] = organism: Oryctolagus cuniculus; assay: Cardioprotective activity in rabbit model assessed as resistance relaxation at 5.6 uM; assay type: functional; set-up: scale not given: the % may be the effect or the level left
Oryctolagus cuniculus [4] = organism: Oryctolagus cuniculus; assay: Cardioprotective activity in rabbit model assessed as resistance relaxation at 30 uM; assay type: functional; set-up: scale not given: the % may be the effect or the level left
Rattus norvegicus [5] = organism: Rattus norvegicus; assay: Activation of rat Na(+)/K(+) ATPase assessed as increase in maximum velocity relative to control
Mus musculus [6] = organism: Mus musculus; assay: Effect on linoleic level in serum of high fat diet induced mouse model assessed as reduction in linoleic level relative to control; assay type: functional; set-up: scale not given: the % may be the effect or the level left
Oryctolagus cuniculus [7] = organism: Oryctolagus cuniculus; assay: Cardioprotective activity in rabbit model assessed as conductivity relaxation at 8 uM; assay type: functional; set-up: scale not given: the % may be the effect or the level left
Mus musculus [8] = organism: Mus musculus; assay: Effect on triglyceride level in serum of high fat diet induced mouse model assessed as reduction in triglycerides level relative to control; assay type: functional; set-up: scale not given: the % may be the effect or the level left
Mus musculus [9] = organism: Mus musculus; assay: Effect on palmitic level in serum of high fat diet induced mouse model assessed as reduction in palmitic level relative to control; assay type: functional; set-up: scale not given: the % may be the effect or the level left
Oryctolagus cuniculus [10] = organism: Oryctolagus cuniculus; assay: Cardioprotective activity in rabbit model assessed as conductivity relaxation at 30 uM; assay type: functional; set-up: scale not given: the % may be the effect or the level left
Oryctolagus cuniculus [11] = organism: Oryctolagus cuniculus; assay: Cardioprotective activity in rabbit model assessed as conductivity relaxation at 5.6 uM; assay type: functional; set-up: scale not given: the % may be the effect or the level left
Mus musculus [12] = organism: Mus musculus; assay: Effect on oleic level in serum of high fat diet induced mouse model assessed as reduction in oleic level relative to control; assay type: functional; set-up: scale not given: the % may be the effect or the level left
Mus musculus [13] = assay: Cardioprotection in […] assessed as decrease in mean arterial pressure at 5 to 10 mg/kg, po measured after 13 weeks relative control; assay type: functional; set-up: scale not given: the % may be the effect or the level left; conditions: dose 5-10 mg/kg
Rattus norvegicus [14] = assay: Hypotensive effect in rat at 100 nmol/kg,po; assay type: functional

`O=c1c(O)c(-c2ccc(O)c(O)c2)oc2cc(O)cc(O)c12` [QUERCETIN] was tested. Which Activity (Mus musculus [1]) did it give?
Its Activity is 86%.

What about the Activity (Oryctolagus cuniculus [2]) of the same molecule?
Its Activity is -47%.

What about the Activity (Oryctolagus cuniculus [3]) of the same molecule?
The Activity was -3.2%.

And the Activity (Oryctolagus cuniculus [4])?
Its Activity is -82%.

What about the Activity (Rattus norvegicus [5]) of the same molecule?
The Activity was 15%.

And the Activity (Mus musculus [6])?
The Activity was 9%.

What about the Activity (Oryctolagus cuniculus [7]) of the same molecule?
Its Activity is -3.2%.

And the Activity (Mus musculus [8])?
The Activity was 14%.

And the Activity (Mus musculus [9])?
Its Activity is 9%.

And the Activity (Oryctolagus cuniculus [10])?
The Activity was -72%.

What about the Activity (Oryctolagus cuniculus [11]) of the same molecule?
The Activity was -20%.

And the Activity (Mus musculus [12])?
The Activity was 9%.

What about the Activity (Mus musculus [13]) of the same molecule?
Its Activity is -12%.

`C[C@H](CS)C(=O)N1CCC[C@H]1C(=O)O` [CAPTOPRIL] was tested. Which Activity (Rattus norvegicus [14]) did it give?
Its Activity is 29.7 mmHg.
